Assay results published in patent publication US4045567A, “2-Alkyl-5-thiazole-carboxylic acid derivatives in hypolipemiant compositions” (Roussel Uclaf, priority 1969, dated 1977).
Where two headings read alike, the source gives them in different places. Each block holds one compound with its values, some of them ahead of it.

What was measured:
Solubility (qualitative) = type: physicochemical; details: for solubility in other solvents: organic solvents, sodium hydroxide
in vivo = details: mouse, mice, observed one week
Procedure: 1. determination of the acute toxicity:
The acute toxicity has been determined on batches of ten mice weighing from 18 to 22 gm. The products were administered in suspension in gum arabic solution in water, at increasing doses, either by oral route or by intraperitoneal route.
The animals are kept under observation for one week. The average lethal dose (LD50) is determined graphically by the method of Dragstedt and Lang.
The acute toxicity was determined on batches of ten mice weighing from 18 to 22 gm. Ethyl 2-n-propyl-thiazole-4-carboxylate was administered in suspension in gum arabic solution in water, at increasing doses by the intraperitoneal route. The animals were kept under observation for one week. The average lethal dose (LD50) was determined graphically by the method of Dragstedt and Lang.

reddening of the ear = assay: Peripheral vasodilatory effect (reddening of the ear) in guinea pigs; type: in vivo, guinea pigs with non-pigmented ears; design: key to Intensity (of reddening): intensity, which is recorded subjectively from 0 to +++; intensity, which is recorded subjectively from 0 to +++; intensity, which is recorded subjectively from 0 to +++; intensity, which is recorded subjectively from 0 to +++; details: for Duration (of reddening) / Intensity (of reddening) / Period of Induction: oral
Procedure: Peripheral vasodilatory effect: The peripheral vasodilatory effect has been investigated on the guinea pigs with non-pigmented ears by the appearance of the reddening of the ear. The animals, after being starved, are administered the products by oral route, at different dosages. The time of appearance of a reddening of the ears, the duration of this reddening and its intensity, which is recorded subjectively from 0 to +++ is determined. B. peripheral vasodilatory effect: The peripheral vasodilatory effect was investigated on guinea pigs with non-pigmented ears by the appearance of the reddening of the ear. The animals were starved and the product was administered intraperitoneally at a dose of 100 mg/kg. The time of appearance of a reddening of the ears, the duration of this reddening and its intensity being recorded subjectively from 0 to +++ is determined.

triglycerides = assay: Hypolipemiant activity (serum triglycerides) in the rat, technique of Jacobs et al; type: in vivo, male rats of the Wistar strain; details: 4 hours after ingestion; for Percentage of Reduction by Comparison With Controls (triglycerides): oral (oesophagial probe), 20 mg/kg
Procedure: 2. Determination of hypolipemiant activity:
The hypolipemiant activity has been determined on the rat according to the technique of Jacobs et al, Proc. Soc. Exp. Biol. Med., [1965], 119 (4) pp. 1117-1120.
Male rats of the Wistar strain weighing from 160 to 180 gm are not fed for 24 hours. The products employed in a 5% suspension in gum arabic solution in water, are administered through an oesophagial probe at doses of 20, 40 and 80 mg/kg. Four hours after ingestion of the product, some blood is withdrawn on which a determination of the triglycerides is carried out.
The principle of the determination is as follows:
The serum lipids are extracted with petroleum ether in the presence of ethanol. The lipidic solution is treated several times with 87% ethanol. A solution is thus obtained, the upper part of which contains the glycerides and the lower part, the phospholipids.
The weight of the glycerides is determined by determination of glycerol by periodic acid oxidation and determination of the formaldehyde with chromotropic acid.
A. determination of hypolipemiant activity:
The hypolipemiant activity was determined on the rat using the technique of Jacobs et al (Proc. Soc. Exp. Biol. Med., [1965], 119 [4], pp. 1117-1120). Male rats of the Wistar strain weighing from 160 to 180 gm were not fed for 24 hours. The product employed in a 5% suspension in gum arabic solution in water, was administered orally through an oesophagial probe at doses of 20 and 80 mg/kg. Four hours after ingestion of the product, some blood was withdrawn and a determination of the triglycerides therein was made.
The serum lipids are extracted with petroleum ether in the presence of ethanol and the lipidic solution was treated several times with 87% ethanol to obtain a solution, the upper part of which contained the glycerides and the lower part the phospholipids. The weight of the glycerides by determination of glycerol by periodic acid oxidation and determination of the formaldehyde with chromotropic acid is estimated.

[1] = Hypothermic activity in guinea pigs; type: in vivo; details: intraperitoneal, 100 mg/kg, 1, 2 and 3 hours after administration
Procedure: The hypothermic activity was determined on guinea pigs by administering the test compound, ethyl 2-n-propyl-thiazole-4-carboxylate, intraperitoneally at a dose of 100 mg/kg. The body temperature of the guinea pigs was determined 1/2 hour before the administration of the test compound and then 1, 2 and 3 hours after the said administration.

[2] = ip, intraperitoneal, read-out: average lethal dose (LD50), Intraperitoneal Route
[3] = oral, read-out: average lethal dose (LD50), Oral Route

SMILES: CCc1ncc(C(=O)O)s1 [2-ethyl-5-thiazolecarboxylic acid, 2-Ethyl-5-thiazolecarboxylic acid]
- LD50 at 168 h (in vivo; [2]): 525 mg/kg
- LD50 at 168 h (in vivo; [3]): > 2000 mg/kg
- Duration (of reddening) (reddening of the ear; 50 mg/kg): 50 min
- Intensity (of reddening) (reddening of the ear; 50 mg/kg): +++
- Period of Induction (reddening of the ear; 50 mg/kg): 6 to 8 min
- Duration (of reddening) (reddening of the ear; 100 mg/kg): 60 min
- Intensity (of reddening) (reddening of the ear; 100 mg/kg): +++
- Period of Induction (reddening of the ear; 100 mg/kg): 6 to 7 min
- solubility in other solvents (Solubility (qualitative)): soluble in ethanol and sodium hydroxide
- solubility in water (Solubility (qualitative)): insoluble in water
- Percentage of Reduction by Comparison With Controls (triglycerides) (triglycerides): 50%

SMILES: Cc1ncc(C(=O)O)s1 [2-methyl-5-thiazolecarboxylic acid]
- Duration (of reddening) (reddening of the ear; 10 mg/kg): 30 min
- Intensity (of reddening) (reddening of the ear; 10 mg/kg): +++
- Period of Induction (reddening of the ear; 10 mg/kg): 5 min
- Duration (of reddening) (reddening of the ear; 20 mg/kg): 32 min
- Intensity (of reddening) (reddening of the ear; 20 mg/kg): +++
- Period of Induction (reddening of the ear; 20 mg/kg): 3 min
- Duration (of reddening) (reddening of the ear; 50 mg/kg): 35 min
- Intensity (of reddening) (reddening of the ear; 50 mg/kg): +++
- Period of Induction (reddening of the ear; 50 mg/kg): 3 min
- Percentage of Reduction by Comparison With Controls (triglycerides) (triglycerides): 40%

SMILES: CCCCc1ncc(C(=O)O)s1 [2-n-butyl-5-thiazolecarboxylic acid]
- solubility in other solvents (Solubility (qualitative)): soluble in alcohol, chloroform and benzene
- solubility in water (Solubility (qualitative)): insoluble in water

SMILES: CCCCCCc1ncc(C(=O)O)s1 [2-n-hexyl-5-thiazolecarboxylic acid]
- solubility in other solvents (Solubility (qualitative)): soluble in sodium hydroxide and alcohol
- solubility in water (Solubility (qualitative)): insoluble in water

SMILES: CCCCCc1ncc(C(=O)O)s1 [2-n-pentyl-5-thiazolecarboxylic acid]
- solubility in other solvents (Solubility (qualitative)): soluble in sodium hydroxide and alcohol, slightly soluble in ether
- solubility in water (Solubility (qualitative)): insoluble in water

SMILES: CCCCCCCCCCCc1ncc(C(=O)O)s1 [2-n-undecyl-5-thiazolecarboxylic acid]
- solubility in other solvents (Solubility (qualitative)): soluble in alcohol and acetone
- solubility in water (Solubility (qualitative)): insoluble in water

SMILES: CCCc1ncc(C(=O)O)s1 [2-propyl-5-thiazolecarboxylic acid]
- LD50 at 168 h (in vivo; [2]): 1680 mg/kg
- LD50 at 168 h (in vivo; [3]): > 2000 mg/kg
- Duration (of reddening) (reddening of the ear; 50 mg/kg): 30 min
- Intensity (of reddening) (reddening of the ear; 50 mg/kg): +
- Period of Induction (reddening of the ear; 50 mg/kg): 13 min
- Duration (of reddening) (reddening of the ear; 100 mg/kg): 32 min
- Intensity (of reddening) (reddening of the ear; 100 mg/kg): ++
- Period of Induction (reddening of the ear; 100 mg/kg): 10 min
- solubility in other solvents (Solubility (qualitative)): soluble in sodium hydroxide and alcohol, slightly soluble in ether
- solubility in water (Solubility (qualitative)): insoluble in water
- Percentage of Reduction by Comparison With Controls (triglycerides) (triglycerides): > 50%

SMILES: CCCc1ncc(C(=O)O)s1 [diisopropylammonium 2-propyl-5-thiazolecarboxylate]
- solubility in other solvents (Solubility (qualitative)): soluble in water and in alcohol
- solubility in water (Solubility (qualitative)): soluble in water

SMILES: CCCc1nc(C(=O)OCC)cs1 [ethyl 2-n-propyl-thiazole-4-carboxylate, reference compound]
- hypothermic activity [1]: no hypothermic activity
- LD50 at 168 h (in vivo; [2]): 1000 to 1500 mg/kg
- peripheral vasodilatory effect (reddening of the ear; intraperitoneal, 100 mg/kg, comparison test): no vasodilatory activity
- hypolipemiant activity (action on the triglycerides) (triglycerides; oral, 20 and 80 mg/kg, comparison test): no action on the triglycerides

Second part, led by results:

- solubility in other solvents (Solubility (qualitative)): soluble in ether, benzene and ethanol
- solubility in water (Solubility (qualitative)): insoluble in water
SMILES: CCCc1ncc(C(=O)OCC2COC(C)(C)O2)s1 (stereo not drawn) [2,3-Isopropylidenedioxy-propyl 2-propyl-5-thiazolecarboxylate]

- solubility in other solvents (Solubility (qualitative)): soluble in ether and acetone
- solubility in water (Solubility (qualitative)): insoluble in water
SMILES: CCCc1ncc(C(=O)OCCc2ccccc2)s1 [Phenylethyl 2-propyl-5-thiazolecarboxylate]

- solubility in other solvents (Solubility (qualitative)): soluble in ether and ethanol
- solubility in water (Solubility (qualitative)): insoluble in water
SMILES: CCCc1ncc(C(=O)OCc2ccccc2)s1 [benzyl 2-propyl-5-thiazolecarboxylate, Benzyl 2-propyl-5-thiazolecarboxylate]

- solubility in water (Solubility (qualitative)): soluble in water
SMILES: CCCc1ncc(C(=O)OCCN(CC)CC)s1 [chlorohydrate of N,N-diethylaminoethyl 2-propyl-5-thiazolecarboxylate]
- solubility in other solvents (Solubility (qualitative)): soluble in water, ethanol, propylene glycol, acetone, and chloroform, slightly soluble in ethyl acetate and benzene, and insoluble in ether
